Assay results reported in US20240408216A1, “PROTEIN INHIBITOR OR DEGRADING AGENT, PHARMACEUTICAL COMPOSITION CONTAINING SAME AND PHARMACEUTICAL USE” (JING MEDICINE TECHNOLOGY (SHANGHAI) LTD., priority 2021, published 2024).

Assays:
[1] = tested on: BaF3 (EGFR L858R/T790M/C797S); test: Cell proliferation IC50 assay (Cell Titer GLO), BaF3 LTC cells; format: cell-based; conditions: Mus musculus, Ba/F3 EGFR, Table 6, 72 h
Description: (§1) IC50 of compounds in the present invention was determined by Cell Titer GLO reagent from Promega. The procedures are as follows:
(§2) Tumor cells were cultured in specified medium in an incubator at 37° C. and 5% CO2. The cells were passaged periodically. Cells at the logarithmic growth phase were collected for plating at a density of 2000-4000 cells/well. The next day, the compounds of the present invention were serially diluted and added to the cells, with DMSO being the negative control and the culture media without cells being the blank control. The plate was incubated in the incubator for 72 h. The cell viability assay was performed by adding the detection reagents to the cell culture media according to Cell Titer GLO reagent instructions and detecting luminescent signals on an EnVision microplate reader (PerkinElmer).
(§3) Inhibition of cell growth by the compounds of the present invention was plotted by Prism Graphpad software for statistically calculating the IC50 of the compound of the present invention.

[2] = tested on: BaF3 (EGFR Del19/T790M/C797S); test: Cell proliferation IC50 assay (Cell Titer GLO), BaF3 DTC cells; format: cell-based; conditions: Mus musculus, Ba/F3 EGFR-Del19/T790M/C797S, Table 6, 72 h
Description: as §1, §2, §3

A431 = test: Cell proliferation IC50 assay (Cell Titer GLO), A431 cells; format: cell-based; conditions: Homo sapiens, A-431; Table 6; A431, 72 h; read-out: A431 IC50
Description: as §1, §2, §3

BaF3 (EGFR Del19/C797S) = target: T1, BaF3 (EGFR Del19/C797S) (Homo sapiens, UniProt P00533, C797S, cells depend on it, form not given); test: Cell proliferation IC50 assay (Cell Titer GLO), BaF3 DC cells; format: cell-based, mouse; conditions: Table 6, 72 h
T1 construct: BaF3 (EGFR Del19/C797S)|DC|RPMI1640 + 10% FBS
T1 sequence (P00533 with tags, fused parts or gaps DEL746-750/C797S, form open): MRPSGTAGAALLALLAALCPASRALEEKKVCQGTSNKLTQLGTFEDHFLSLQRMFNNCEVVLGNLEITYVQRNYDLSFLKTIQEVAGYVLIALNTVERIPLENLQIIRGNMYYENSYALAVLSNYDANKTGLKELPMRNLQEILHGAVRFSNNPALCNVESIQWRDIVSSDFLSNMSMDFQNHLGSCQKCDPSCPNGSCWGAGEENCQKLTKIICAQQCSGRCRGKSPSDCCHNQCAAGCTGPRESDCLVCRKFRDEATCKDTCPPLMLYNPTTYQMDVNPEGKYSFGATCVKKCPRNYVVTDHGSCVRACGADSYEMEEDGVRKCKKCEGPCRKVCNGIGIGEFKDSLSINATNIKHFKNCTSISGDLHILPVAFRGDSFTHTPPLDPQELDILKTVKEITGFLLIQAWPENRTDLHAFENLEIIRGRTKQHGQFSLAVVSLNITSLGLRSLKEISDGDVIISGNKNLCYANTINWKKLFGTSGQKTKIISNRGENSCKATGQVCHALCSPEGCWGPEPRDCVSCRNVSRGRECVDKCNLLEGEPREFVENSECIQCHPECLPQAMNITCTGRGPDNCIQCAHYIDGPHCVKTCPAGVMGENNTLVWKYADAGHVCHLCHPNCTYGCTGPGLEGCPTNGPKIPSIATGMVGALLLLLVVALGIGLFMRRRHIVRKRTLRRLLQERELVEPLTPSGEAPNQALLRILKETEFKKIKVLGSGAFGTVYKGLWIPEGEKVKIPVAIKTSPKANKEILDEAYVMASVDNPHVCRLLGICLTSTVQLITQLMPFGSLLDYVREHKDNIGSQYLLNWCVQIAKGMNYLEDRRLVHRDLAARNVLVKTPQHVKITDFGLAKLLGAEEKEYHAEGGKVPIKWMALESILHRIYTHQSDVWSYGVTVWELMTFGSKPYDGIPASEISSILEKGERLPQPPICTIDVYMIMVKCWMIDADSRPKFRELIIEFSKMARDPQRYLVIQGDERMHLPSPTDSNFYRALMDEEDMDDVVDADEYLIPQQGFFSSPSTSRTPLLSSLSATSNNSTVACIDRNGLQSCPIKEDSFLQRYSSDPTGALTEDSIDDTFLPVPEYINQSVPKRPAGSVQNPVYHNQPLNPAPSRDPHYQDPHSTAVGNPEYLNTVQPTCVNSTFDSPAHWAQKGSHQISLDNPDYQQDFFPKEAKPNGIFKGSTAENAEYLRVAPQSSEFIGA
Description: as §1, §2, §3

BaF3 (EGFR WT) = test: Cell proliferation IC50 assay (Cell Titer GLO), BaF3 WT cells; format: cell-based; conditions: Mus musculus, Ba/F3 EGFR, Table 6, 10 ng/ml EGF, 72 h
Description: as §1, §2, §3

Row | IC50 [1] [µM] | IC50 [2] [µM] | IC50 (A431) [µM] | IC50 (BaF3 (EGFR Del19/C797S)) [µM] | IC50 (BaF3 (EGFR WT)) [µM] | Compound
1 | 0.0225 | 0.0121 | > 4 | 0.0064 | 1.75 | [2H]C([2H])([2H])C([2H])([2H])c1cc(Nc2ncc(Cl)c(Nc3ccccc3P(C)(C)=O)n2)c(OC)cc1N1CCC(N2CCN(CCOc3ccc4c(c3)CN(C3CCC(=O)NC3=O)C4=O)CC2)CC1 (stereo not shown) [Example E221]
2 | 0.0581 | 0.0219 | 1.35 | 0.0126 | 1.26 | CCc1cc(Nc2ncc(Cl)c(Nc3ccccc3P(C)(C)=O)n2)c(OC)cc1N1CCC(N2CCN(C(=O)CCC#Cc3cccc4c3CN(C3CCC(=O)NC3=O)C4=O)CC2)CC1 (stereo not shown) [Example E50]
3 | 0.621 | 0.28 | > 4 | 0.0378 | > 4 | COc1cc(N2CCC(N3CCN(CCC#Cc4cccc5c4CN(C4CCC(=O)NC4=O)C5=O)CC3)CC2)c(C(N)=O)cc1Nc1ncc(Cl)c(Nc2ccccc2P(C)(C)=O)n1 (stereo not shown) [Example E61]
4 | 0.0546 | 0.00797 | > 4 | 0.0081 | > 4 | CCc1cc(Nc2nc(Nc3ccccc3P(C)(C)=O)c3cc[nH]c3n2)c(C)cc1N1CCC(N2CCN(CCCCOc3cccc4c3CN(C3CCC(=O)NC3=O)C4=O)CC2)CC1 (stereo not shown) [Example E140]
5 | 0.0206 | 0.00409 | 2.49 | 0.0044 | 0.306 | CCc1cc(Nc2ncc(Cl)c(Nc3ccccc3P(C)(C)=O)n2)c(OC)cc1N1CCC(N2CCN([C@H]3C[C@@H](Oc4cc5c(cc4F)C(=O)N(C4CCC(=O)NC4=O)C5)C3)CC2)CC1 (stereo partly shown) [Example E67]
6 | 0.0143 | 0.00289 | 2.41 | 0.0008 | 1.29 | CCc1cc(Nc2ncc(Cl)c(Nc3ccccc3P(C)(C)=O)n2)c(OC)cc1N1CCC(N2CCN([C@H]3C[C@H](Oc4cccc5c4CN(C4CCC(=O)NC4=O)C5=O)C3)CC2)CC1 (stereo partly shown) [Example E160]
7 | > 4 | – | 1.25 | 0.0007 | 0.267 | CCc1cc(Nc2ncc(-c3cnn(C)c3)c(Nc3ccccc3P(C)(C)=O)n2)c(OC)cc1N1CCC(N2CCN([C@H]3C[C@H](Oc4cccc5c4CN(C4CCC(=O)NC4=O)C5=O)C3)CC2)CC1 (stereo partly shown) [Example E70]
8 | 0.057 | – | 0.524 | 0.0402 | 0.0506 | CCc1cc(Nc2ncc(Cl)c(Nc3ccccc3P(C)(C)=O)n2)cc(C#N)c1N1CCC(N2CCN(CCC#Cc3cccc4c3CN(C3CCC(=O)NC3=O)C4=O)CC2)CC1 (stereo not shown) [Example E94]
9 | 0.162 | 0.017 | 1.78 | – | 0.781 | CCc1cc(Nc2ncc(Cl)c(Nc3ccccc3P(C)(C)=O)n2)c(OC)cc1N1CCC(N2CCN(C(=O)COc3cccc4c3CN(C3CCC(=O)NC3=O)C4=O)CC2)CC1 (stereo not shown) [Example E82]
10 | > 4 | – | > 4 | 0.001 | 0.926 | CCc1cc(Nc2ncc(-c3cnn(C)c3)c(Nc3ccc(C)cc3P(C)(C)=O)n2)c(OC)cc1N1CCC(N2CCN(Cc3ccc4c(c3)CN(C3CCC(=O)NC3=O)C4=O)CC2)CC1 (stereo not shown) [Example E216]
11 | > 4 | – | > 4 | 0.0077 | > 4 | CCc1cc(Nc2ncc(-c3cc[nH]n3)c(Nc3ccccc3P(C)(C)=O)n2)c(OC)cc1N1CCC(N2CCN(CCOc3cccc4c3CN(C3CCC(=O)NC3=O)C4=O)CC2)CC1 (stereo not shown) [Example E164]
12 | 0.0516 | – | 1.44 | 0.0068 | 1.69 | CCc1cc(Nc2ncc(Cl)c(Nc3ccccc3P(C)(C)=O)n2)c(OC)cc1N1CCC(N2CCN(CCCCOc3cccc4c3CN(C3CCC(=O)NC3=O)C4=O)CC2=O)CC1 (stereo not shown) [Example E101]
13 | 0.694 | – | 0.963 | 0.0609 | 0.554 | CCc1cc(Nc2ncc(Cl)c(Nc3ccccc3P(C)(C)=O)n2)cc(C(N)=O)c1N1CCC(N2CCN(CCCCOc3cccc4c3CN(C3CCC(=O)NC3=O)C4=O)CC2)CC1 (stereo not shown) [Example E139]
